Results taken from the supplement of paper PMC10307832.

Columns and labels:
Assay in all cases: relative viability (nuclei count vs DMSO), 5 days (fraction); higher = more cells survive
[1] = compound: C1=CC2=NC=CN=C2C=C1/C=C/3\C(=O)NC(=O)S3 + CC1(C)CCC(c2ccc(Cl)cc2)=C(CN2CCN(c3ccc(C(=O)NS(=O)(=O)c4ccc(N[C@H](CCN5CCOCC5)CSc5ccccc5)c(S(=O)(=O)C(F)(F)F)c4)cc3)CC2)C1 [Navitoclax] (partner 0.5 µM)
Method in brief: (§1)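 Nuclei were stained with Hoechst during a one-step fixation (final 0.05% Triton X-100, 1% formaldehyde, 1 ug/ml Hoechst) carried out 5 days after dosing, then counted on 4× images. The cells, lung cancer lines in 1536-well plates, had been dosed by pin tool the day after seeding with one drug alone or a fixed anchor-drug dose plus five library-drug doses (not always all listed) in √10 steps. Relative viability is the nuclei count in treated wells divided by that in vehicle wells, and each value is the median of duplicate plates.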

BGJ398 + Phenformin = compound: CCN1CCN(c2ccc(Nc3cc(N(C)C(=O)Nc4c(Cl)c(OC)cc(OC)c4Cl)ncn3)cc2)CC1 [BGJ398] + N=C(N)NC(=N)NCCc1ccccc1 [Phenformin] (partner 250 µM)
Method in brief: as §1

[2] = compound: C1=CC2=NC=CN=C2C=C1/C=C/3\C(=O)NC(=O)S3
Method in brief: (§2)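 Viability was read as treated-well nuclei divided by vehicle-well nuclei, using the median across plates. Lung cancer cell lines in 1536-well plates were kept overnight at 37 °C, pinned with five √10-spaced library-drug doses, and after 5 days were Hoechst-stained, imaged at 4× and counted in MetaXpress. Plates passed only with control CV below 25% and at least one doubling.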

BGJ398 = compound: CCN1CCN(c2ccc(Nc3cc(N(C)C(=O)Nc4c(Cl)c(OC)cc(OC)c4Cl)ncn3)cc2)CC1 [BGJ398]
Method in brief: as §2

Cell Line | relative viability ([1]; first compound 0.02 µM) | relative viability ([1]; first compound 0.06325 µM) | relative viability ([1]; first compound 0.2 µM) | relative viability ([1]; first compound 0.6325 µM) | relative viability ([1]; first compound 2 µM) | relative viability (BGJ398 + Phenformin; first compound 0.01 µM) | relative viability (BGJ398 + Phenformin; first compound 0.03162 µM) | relative viability (BGJ398 + Phenformin; first compound 0.1 µM) | relative viability (BGJ398 + Phenformin; first compound 0.3162 µM) | relative viability (BGJ398 + Phenformin; first compound 1 µM) | relative viability ([2]; 0.02 µM) | relative viability ([2]; 0.06325 µM) | relative viability ([2]; 0.2 µM) | relative viability ([2]; 0.6325 µM) | relative viability ([2]; 2 µM) | relative viability (BGJ398; 0.01 µM) | relative viability (BGJ398; 0.03162 µM) | relative viability (BGJ398; 0.1 µM) | relative viability (BGJ398; 0.3162 µM) | relative viability (BGJ398; 1 µM)
NCI-H2126 | 0.739 | 0.909 | 0.914 | 0.842 | 0.727 | 0.505 | 0.57 | 0.541 | 0.547 | 0.475 | 0.885 | 1.07 | 0.956 | 0.979 | 0.621 | 1.02 | 0.999 | 1.04 | 0.989 | 0.948
LXF-289 | 0.92 | 0.918 | 0.898 | 0.917 | 0.932 | 0.536 | 0.509 | 0.542 | 0.473 | 0.502 | 0.996 | 0.95 | 0.956 | 0.97 | 1.01 | 0.949 | 0.948 | 0.944 | 0.875 | 0.942
NCI-H2009 | 1.2 | 1.2 | 1.15 | 1.21 | 1.23 | 0.454 | 0.511 | 0.437 | 0.374 | 0.45 | 0.996 | 1.03 | 1.04 | 1.02 | 0.923 | 0.924 | 1.07 | 0.994 | 0.974 | 1.06
NCI-H2405 | 0.751 | 1.14 | 0.938 | 0.947 | 0.755 | 0.394 | 0.432 | 0.377 | 0.394 | 0.371 | 1.08 | 1.02 | 1.02 | 1.01 | 0.394 | 1.04 | 1.11 | 0.99 | 1.01 | 0.958
NCI-H1755 | 0.881 | 0.947 | 1.03 | 0.975 | 0.936 | 0.533 | 0.669 | 0.618 | 0.656 | 0.601 | 0.887 | 0.949 | 0.986 | 0.925 | 0.93 | 0.933 | 1.06 | 1.05 | 0.963 | 1.01
HCC-78 | 0.667 | 0.641 | 0.741 | 0.733 | 0.767 | 0.67 | 0.609 | 0.735 | 0.731 | 0.607 | 0.9 | 0.845 | 1.04 | 0.979 | 0.507 | 0.881 | 0.911 | 0.933 | 1.02 | 0.86
LOU-NH91 | 0.686 | 0.659 | 0.685 | 0.641 | 0.657 | 0.676 |  | 0.712 | 0.455 | 0.474 | 0.997 | 0.988 | 1.01 | 0.978 | 0.805 | 0.935 | 0.883 | 0.971 | 0.771 | 0.931
NCI-H3122 | 1.06 | 0.997 | 0.973 | 1.01 | 1.08 | 0.353 | 0.387 | 0.373 | 0.339 | 0.347 | 1 | 1.04 | 0.975 | 0.949 | 0.984 | 0.934 | 1.01 | 1.04 | 0.977 | 1.01
HCC-827 | 0.999 | 1.01 | 1.03 | 1.08 | 1.03 | 0.323 |  | 0.432 | 0.317 | 0.413 | 0.989 | 0.984 | 1.02 | 1.04 | 1.05 | 0.932 |  | 1.01 | 0.962 | 1.04
SK-LU-1 | 0.84 | 0.765 | 1.02 | 0.854 | 0.868 | 0.5 | 0.556 | 0.58 | 0.367 | 0.491 | 1.06 | 1.21 | 1.09 | 1.02 | 0.969 | 0.983 | 1.07 | 1.22 | 0.978 | 1.03
NCI-H1975 | 0.998 | 1.12 | 1.04 | 0.974 | 0.981 | 0.415 | 0.409 | 0.475 | 0.412 | 0.356 | 0.842 | 1.02 | 0.964 | 0.884 | 0.813 | 0.876 | 1.06 | 1.09 | 0.937 | 0.866
NCI-H1651 | 0.989 | 1.03 | 0.915 | 0.981 | 1.08 | 0.303 | 0.394 | 0.381 | 0.325 | 0.274 | 0.959 | 0.876 | 0.994 | 0.877 | 0.884 | 0.921 | 0.96 | 1.08 | 0.936 | 0.87
NCI-H441 | 0.523 | 0.562 |  | 0.771 | 0.553 | 0.793 | 0.642 | 0.848 | 0.879 | 1.01 | 0.863 | 0.875 | 0.885 | 1.2 | 0.736 | 0.807 | 0.977 | 1.16 | 1.05 | 1.01
LCLC-97TM1 | 0.483 | 0.339 | 0.483 | 0.425 | 0.379 | 0.393 | 0.446 | 0.442 | 0.429 | 0.44 | 0.822 | 1.02 | 1.03 | 0.906 | 0.214 | 0.778 | 1.09 | 1.02 | 0.962 | 0.97
NCI-H727 | 0.499 | 0.642 | 0.541 | 0.395 | 0.228 | 0.668 | 0.521 | 0.635 | 0.568 | 0.516 | 0.931 | 0.856 | 1.13 | 0.888 | 0.558 | 0.868 | 0.879 | 0.917 | 0.957 | 0.917
NCI-H1355 | 0.87 | 1.01 | 1.05 | 1.03 | 0.951 | 0.44 | 0.465 | 0.454 | 0.464 | 0.423 | 0.821 | 0.984 | 1.05 | 0.923 | 0.875 | 0.943 | 0.961 | 1.02 | 0.971 | 0.795
HOP-62 | 0.974 | 1.15 | 1.13 | 1.06 | 0.931 | 0.649 | 0.704 | 0.737 | 0.604 | 0.773 | 0.929 | 0.945 | 1.06 | 1 | 0.943 | 0.983 | 1.07 | 1.07 | 0.982 | 1.02
NCI-H2085 | 1.09 | 0.975 | 1.17 | 1.13 | 1.08 | 0.668 | 0.663 | 0.817 | 0.782 | 0.807 | 0.952 | 1.01 | 1 | 0.983 | 0.892 | 0.951 | 1.01 | 1.01 | 0.938 | 1.03
